Results as given in patent US11033603B2, “Method for treating ocular diseases” (priority 2019, dated 2021).
Entries after “also recorded” stand apart in the source; their conditions may differ.

What was measured:
[1] = system: VEGF induced angiogenesis; assay: In vivo Matrigel plug angiogenesis assay; parameters: species or system B57l/6 mice; details: mice; for VEGF induced angiogenesis in Matrigel plugs (images, FIG. 1): plugs taken out on Day 7; for Efficacy in inhibition of VEGF induced angiogenesis by hemoglobin level (FIG. 2), compared with Sorafenib: hemoglobin by Drabkin's reagent kit, Day 7
Text: In Vivo Matrigel Plug Angiogenesis Assay
Matrigel plug is made from a gelatinous protein mixture secreted by Engelbreth-Holm-Swarm (EHS) mouse sarcoma cells (produced and marketed by Corning Life Sciences and BD Biosciences). Matrigel resembles the complex extracellular environment found in many tissues and is used by cell biologists as a substrate (basement membrane matrix) for culturing assay.
The test animals were 5 to 8-week-aged B57l/6 mice. The Matrigel was mixed with PBS at a ratio of 4:1 to obtain the Matrigel plug. The mice were administered with the Matrigel plugs containing 30 IU heparin and VEGF 150 ng/ml (500 ul/mouse), and then divided into four groups (4 mice in one group), treated with Beauvericin i.p. or orally (GYT-088 Group), Sorafenib (Sorafenib Group) as a positive control, VEGF alone (Vehicle), and without any treatment (Ctrl). After one day, the animals were administered with the sorafenib i.p. at a dosage of 30 mg/kg or Beauvericin i.p. at a dosage of 2.4 mg/kg (0.1c.c./mice/day), or were orally administered with the Beauvericin at a dosage of 24 mg/kg once per day for six days. On Day 7, the animals were sacrificed and the Matrigel plugs were taken out for observation of angiogenesis. The hemoglobin of each mouse was also measured by Drabkin's reagent kit.

[2] = Drug observed in the eyes after oral administration (FIG. 3); type: in vivo
[3] = system: naturally-occurring diabetic macular edema in rhesus monkeys; assay: Fundus photography (FP) of NPDR related changes in spontaneous DME rhesus monkeys; type: in vivo, Macaca mulatta (Rhesus Macaque)
Text: (§1) Evaluation of Efficacy of beauvericin at different doses for 60 days on improving naturally-occurring diabetic macular edema in rhesus monkeys, providing a basis for clinical trial dose design and safety study.
(§2) Macaca mulatta (Rhesus Macaque) are used in the evaluation.
Secondary Endpoints and Safety Parameters: • (1) Fundus photography (FP). To detect changes of hemorrhage, exudate or vessel lesion before and after treatment; and • (2) Drug effect on metabolism and lipid profiles, liver and kidney function.
Non-human primates (NHPs) are extremely similar to humans in physiological function and structure of eyes. […]
Inclusion Criteria • (1) Female, age 13-18 years (equals to 40-60 years old in human adults), 6-7 kg; • (2) Diabetic duration: over 3 years; • (3) DME of single/both eyes; • (4) DME: the retinal thickness measured by Heidelberg Spectralis OCT in recent half year and diagnosed by FP/FFA with Kowa VX-20 Fundus Camera; • (5) CRT≥260 μm (Central Foveal Thickness) and/or Average Thickness of ETDRS regions≥319 μm. […] Nondiabetic monkey: Average thickness of the retina in nondiabetic animals was 192±11 μm at the fovea, and 307±15 and 328±13 measured at a distance of 1.5 mm from fovea on the temporal and nasal sides, respectively. […]

[4] = system: naturally-occurring diabetic macular edema in rhesus monkeys; assay: Retinal thickness by OCT in spontaneous DME rhesus monkeys; type: in vivo, Macaca mulatta (Rhesus Macaque); details: for Macular Central Thickness, left eye / Macular Central Thickness, right eye / Fovea Thickness, left eye / Fovea Thickness, right eye: monkey #2003 (NPDR); for Macular Central Thickness, left eye: baseline 204; for Macular Central Thickness, right eye: baseline 210; for Fovea Thickness, left eye: baseline 257; for Fovea Thickness, right eye: baseline 260
Experimental: as §1, §2
Retinal Thickness by OCT. To Quantify Retinal Thickness Before and after Treatment.
Retinal thickness is evaluated by 2 methods using OCT: (1) at the fovea and 1.5 mm on either side of it (three point method), and (2) using a 52-point grid to determine the fraction of macula that had thicknesses in different thickness groupings (250-300, 301-350, 351-400 μm, etc.). This method was developed by the Primed team in collaboration with Prof. Dr. Timothy Kern, a renowned diabetic retinopathy expert from Case Western Reserve University. Refer to the ARVO 2018 Poster. Assessment of macular thickening in spontaneously diabetic rhesus monkeys.
Inclusion Criteria • (1) Female, age 13-18 years (equals to 40-60 years old in human adults), 6-7 kg; • (2) Diabetic duration: over 3 years; • (3) DME of single/both eyes; • (4) DME: the retinal thickness measured by Heidelberg Spectralis OCT in recent half year and diagnosed by FP/FFA with Kowa VX-20 Fundus Camera; • (5) CRT≥260 μm (Central Foveal Thickness) and/or Average Thickness of ETDRS regions≥319 μm. (Retinal Thickening is defined by Mean and SD of CRT and ETDRS thickness of normal monkeys). The retinal thickening is defined as thickness that exceeded the normal mean by 2 standard deviations. Nondiabetic monkey: Average thickness of the retina in nondiabetic animals was 192±11 μm at the fovea, and 307±15 and 328±13 measured at a distance of 1.5 mm from fovea on the temporal and nasal sides, respectively. This method was developed by the Primed team in collaboration with Prof. Dr. Timothy Kern, a renowned diabetic retinopathy expert from Case Western Reserve University. Refer to the ARVO 2018 Poster. Assessment of macular thickening in spontaneously diabetic rhesus monkeys; and • (6) with/without vessel leakage or non-perfusion area.
6 spontaneous DME rhesus monkeys (with medical record within one year) will be provided and 4 out of 6 monkeys will be enrolled in the Pre-study period (four weeks) for FA, FP, OCT and slit lamp examination as well as blood biochemistry before treatment. 4 Monkeys will be divided into two groups based on retinal thickness by OCT: • (1) Group 1, vehicle group, N=1; • (2) Group 2, test article group, N=3; (Route of administration: oral administration, once a day; Dosage: TBD).
Retinal thickness includes CST and ETDRS thickness. […]

[5] = monkey #2003, Day 14 versus baseline
[6] = monkey #2003, Day 56 versus baseline

CC(C)[C@H]1OC(=O)[C@H](Cc2ccccc2)N(C)C(=O)[C@@H](C(C)C)OC(=O)[C@H](Cc2ccccc2)N(C)C(=O)[C@@H](C(C)C)OC(=O)[C@H](Cc2ccccc2)N(C)C1=O [GYT-088, beauvericin]
VEGF induced angiogenesis in Matrigel plugs (images, FIG. 1) ([1]; Beauvericin i.p. 2.4 mg/kg once per day for six days): inhibited
Efficacy in inhibition of VEGF induced angiogenesis by hemoglobin level (FIG. 2), compared with Sorafenib ([1]; listed as Beauvericin): higher efficacy
Efficacy in inhibition of VEGF induced angiogenesis by hemoglobin level (FIG. 2), compared with Sorafenib ([1]; listed as beauvericin): higher efficacy; also recorded: even better than Sorafenib
Crossing of blood-brain barrier (BBB) and blood-retinal barrier (BRB) into extravascular space of retina and vitreous body [2]: can be cross the blood-brain barrier (BBB) and particularly the blood-retinal barrier (BRB)
Presence of test drug in the eyes of the animal [2]: observed in the eyes
NPDR related changes, FP ([3]; monkey #2003, D28, oral, once a day, baseline: hemorrhages): improved
NPDR changes before and after dosing by FP ([3]; other animals of GYT-088 group (not #2003), any time points): No significant changes
Macular Central Thickness, left eye ([4]; D14): 197 μm
Macular Central Thickness, right eye ([4]; D14): 202 μm
Fovea Thickness, left eye ([4]; D14): 249 μm
Fovea Thickness, right eye ([4]; D14): 251 μm
Macular Central Thickness, left eye ([4]; D28): 199 μm
Macular Central Thickness, right eye ([4]; D28): 206 μm
Fovea Thickness, left eye ([4]; D28): 253 μm
Fovea Thickness, right eye ([4]; D28): 255 μm
Macular Central Thickness, left eye ([4]; D56 (Double dosing)): 200 μm
Macular Central Thickness, right eye ([4]; D56 (Double dosing)): 202 μm
Fovea Thickness, left eye ([4]; D56 (Double dosing)): 254 μm
Fovea Thickness, right eye ([4]; D56 (Double dosing)): 255 μm
Reduction of central macular thickness (CMT), left eye [4, 5]: 7 μm
Reduction of central macular thickness (CMT), right eye [4, 5]: 8 μm
Reduction of fovea thickness, left eye [4, 5]: 8 μm
Reduction of fovea thickness, right eye [4, 5]: 9 μm
Reduction of central macular thickness, left eye [4, 6]: 6 μm
Reduction of central macular thickness, right eye [4, 6]: 8 μm
Reduction of macular thickness, left eye [4, 6]: 3 μm
Reduction of macular thickness, right eye [4, 6]: 5 μm
Efficacy in Diabetic Macular Edema (conclusion) ([4]; rhesus monkeys, oral, once a day): provided an efficacy in Diabetic Macular Edema

CNC(=O)c1cc(Oc2ccc(NC(=O)Nc3ccc(Cl)c(C(F)(F)F)c3)cc2)ccn1 [Sorafenib, reference compound]
VEGF induced angiogenesis in Matrigel plugs (images, FIG. 1) ([1]; Sorafenib i.p. 30 mg/kg, positive control): inhibited
